# In the Kinase Knowledgebase extract (Sharma et al. 2016):
# Target: PIK3CG (UniProt P48736)
# Experiment: Inhibition of PIK3CG Kinase Activity
# PIK3CG, sequence (P48736 whole entry, looked up): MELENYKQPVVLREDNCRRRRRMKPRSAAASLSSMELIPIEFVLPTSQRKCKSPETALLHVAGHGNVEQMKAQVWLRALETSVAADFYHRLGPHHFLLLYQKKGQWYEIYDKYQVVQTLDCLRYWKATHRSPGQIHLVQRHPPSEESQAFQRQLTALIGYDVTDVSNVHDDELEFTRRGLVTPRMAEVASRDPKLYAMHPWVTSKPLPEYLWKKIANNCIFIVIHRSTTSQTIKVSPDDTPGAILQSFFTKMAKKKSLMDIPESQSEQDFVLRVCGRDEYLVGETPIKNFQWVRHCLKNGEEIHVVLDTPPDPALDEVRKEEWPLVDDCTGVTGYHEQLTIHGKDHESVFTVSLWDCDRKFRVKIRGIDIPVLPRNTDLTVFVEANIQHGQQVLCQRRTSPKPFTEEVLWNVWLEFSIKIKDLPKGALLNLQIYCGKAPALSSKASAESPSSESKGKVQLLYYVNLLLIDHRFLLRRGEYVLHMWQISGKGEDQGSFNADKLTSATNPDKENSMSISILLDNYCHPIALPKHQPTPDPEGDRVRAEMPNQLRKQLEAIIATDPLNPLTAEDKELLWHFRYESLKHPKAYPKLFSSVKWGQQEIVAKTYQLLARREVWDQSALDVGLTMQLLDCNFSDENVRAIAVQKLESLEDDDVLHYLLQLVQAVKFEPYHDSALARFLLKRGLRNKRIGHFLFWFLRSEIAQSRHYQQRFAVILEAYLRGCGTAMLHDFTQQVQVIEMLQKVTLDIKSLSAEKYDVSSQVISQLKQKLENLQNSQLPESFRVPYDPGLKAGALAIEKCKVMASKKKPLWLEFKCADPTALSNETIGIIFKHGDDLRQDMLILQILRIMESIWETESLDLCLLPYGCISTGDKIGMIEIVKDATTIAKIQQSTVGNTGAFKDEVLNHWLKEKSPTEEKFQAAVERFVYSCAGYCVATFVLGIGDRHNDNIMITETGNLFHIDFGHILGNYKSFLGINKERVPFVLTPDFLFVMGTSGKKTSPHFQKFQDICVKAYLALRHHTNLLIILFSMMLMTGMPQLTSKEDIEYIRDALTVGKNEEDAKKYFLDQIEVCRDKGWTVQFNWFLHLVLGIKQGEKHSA
row,Structure (SMILES),IC50 [nM]
1,CC(C)(C)c1cc(C(C)(C)C)nc(CN2C(=O)COc3ccc(C=C4SC(=S)NC4=O)cc32)n1,2070
2,CCOC(=O)N1CCC(Cc2ccc(CN3C(=O)COc4ccc(C=C5SC(=S)NC5=O)cc43)cc2)CC1,52
3,COc1ccc(CCCN2C(=O)COc3ccc(C=C4SC(=O)NC4=O)cc32)cc1,18
4,CN1C(=O)COC2C=CC(C=C3OC(=S)NC3=O)=CC21 (stereo not given),16
5,CC1CC(C)CN(CCCN2C(=O)COc3c(F)cc(C=C4SC(=S)NC4=O)cc32)C1 (stereo not given),18.5
6,CCN1C(=O)COc2ccc(C=C3SC(=S)NC3=O)cc21,42
7,O=C1NC(=S)SC1=Cc1cc(F)c2c(c1)N(Cc1ccc(F)c(Cl)c1)C(=O)CO2,2
8,CC(C)(C)c1cc(CN2C(=O)COc3c(F)cc(C=C4SC(=S)NC4=O)cc32)cc(C(C)(C)O)c1,5
9,O=C1NC(=S)SC1=Cc1ccc2c(c1)N(CCc1ccc(C(F)(F)F)cc1C(F)(F)F)C(=O)CO2,14
10,CC(C)(C)OC(=O)N1CCC(C(=O)CN2C(=O)COc3ccc(C=C4SC(=S)NC4=O)cc32)CC1,3180
11,O=C1NC(=S)SC1=Cc1ccc2c(c1)N(CC1CCCCC1)C(=O)CO2,2
12,O=C1NC(=S)SC1=Cc1cc(F)c2c(c1)N(CCCN1CCOCC1)C(=O)CO2,55
13,CCOC(=O)N1CCC(Cc2ccc(CN3C(=O)COc4ccc(C=C5SC(=O)NC5=O)cc43)cc2)CC1,32
14,CC(C)(C)c1cc(O)cc(CN2C(=O)COc3ccc(C=C4SC(=S)NC4=O)cc32)c1,22
15,CC(C)(C)c1cc(C(C)(C)C)nc(CN2C(=O)COc3c(F)cc(C=C4SC(=S)NC4=O)cc32)n1,1240
